Source: US20190048365A1, “MITOCHONDRIAL MICROINJECTION OF OOCYTES” (Eastern Virginia Medical School, priority 2015, published 2019)

Columns and labels:
[1] = system: purified human platelets; experiment: Fluo-4 staining of purified platelets (platelet activation); assay type: cell-based; conditions: Fluo-4, with 2 mM calcium chloride
From the text: FIGS. 6A and 6B provide further evidence of the functionality of the purified human platelets. […] Dull green fluorescence indicates functional but inactivated platelets. To activate platelets so they can begin to aggregate to initiate the blood clotting process, calcium ions should be at a significant concentration within the platelet cytoplasm.

[2] = system: inner mitochondrial membrane potential of human platelets; conditions: JC-1 2 μM, purified human platelets
Description: In FIG. 5A, platelets are stained with mitochondrial inner membrane sensitive dye JC-1(2 μM) (630× magnification). […] The red stained mitochondria reflect mitochondria with a Wm capable of supporting ATP production. […] FCCP is an uncoupler, a chemical that destroys the inner mitochondrial membrane potential Wm.

[3] = system: isolated human platelet mitochondria; experiment: ATP levels in isolated mitochondria incubated with supplement (chemiluminescence assay); assay type: biochemical; conditions: 2.0 micromolar (maximum increase)
Description: Experiment: Aliquots of isolated human platelet mitochondria were incubated for different amounts of time in the presence of differing concentrations of L-carnitine, a compound known to stimulate the uptake and metabolism of fat molecules for use by the mitochondria to produce ATP. Along the X-axis of this graph, the numbers 1, 2, 3, and 4 refer to 0, 0.2 micromolar, 2.0 micromolar, and 20 micromolar concentrations of L-carnitine in the mitochondrial incubation buffer. The mitochondrial aliquots in hatched columns (Series 1) were incubated for 20 minutes in the presence of the L-carnitine while the mitochondrial aliquots in non-hatched columns (Series 2) were incubated for 60 minutes in the presence of L-carnitine. After these incubation times, the samples were processed to measure ATP by a very sensitive chemiluminescence assay.

CNc1ccc2oc(C[C@H]3O[C@@]4(CC[C@H]3C)O[C@H]([C@H](C)C(=O)c3ccc[nH]3)[C@H](C)C[C@H]4C)nc2c1C(=O)O [A23187]
effect on Fluo-4 green fluorescence (platelet activation) [1]: much more intense green fluorescence

N#CC(C#N)=NNc1ccc(OC(F)(F)F)cc1 [FCCP, Carbonyl cyanide-4-(trifluoromethoxy)phenylhydrazone]
effect on JC-1 red fluorescence (functional mitochondria) [2]: elimination of the red fluorescence

C[N+](C)(C)C[C@H](O)CC(=O)[O-] [L-carnitine]
increase in ATP levels ([3]; 20 minute incubation (Series 1)): 47% | increase in ATP levels ([3]; 60 minute incubation (Series 2)): 80%
